What is called IC50 is the concentration that inhibits the measured activity by half.

The source of these data is PMC8223498 (Journal of Fluorine Chemistry, 2021).

Common to all, as to format: biochemical
Assay [1] concerns the target T1, human N-terminally His6-tagged AspH315–758 (Homo sapiens, UniProt Q12797).
T1 sequence (Q12797 315-758): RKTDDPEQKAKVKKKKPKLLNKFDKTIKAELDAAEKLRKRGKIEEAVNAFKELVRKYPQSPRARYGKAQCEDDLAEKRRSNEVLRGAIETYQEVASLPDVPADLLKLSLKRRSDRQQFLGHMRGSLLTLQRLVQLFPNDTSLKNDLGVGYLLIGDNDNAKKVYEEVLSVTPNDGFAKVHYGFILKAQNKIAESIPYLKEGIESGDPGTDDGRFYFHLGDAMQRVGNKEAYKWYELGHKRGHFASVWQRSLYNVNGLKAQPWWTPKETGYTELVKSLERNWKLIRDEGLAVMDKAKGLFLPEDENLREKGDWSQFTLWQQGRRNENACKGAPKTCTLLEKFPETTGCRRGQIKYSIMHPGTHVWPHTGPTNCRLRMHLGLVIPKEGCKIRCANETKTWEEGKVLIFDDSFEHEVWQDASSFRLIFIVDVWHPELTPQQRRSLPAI
The experiment in a line: SPE-MS inhibition assay, AspH (peptide hydroxylation). Particulars: 0.05 μM His6-AspH315–758, 1.0 μM hFX-CP101–119 peptide, n = 2, mean ± SD. As to the method:
(§1) KDM4E was used as a representative JmjC KDM; it catalyzes the demethylation of histone 3 (H3) N^ε-di- and trimethylated Lys9 (H3K9me3/me2), [11], [12].
(§2) 2OG oxygenases were produced and purified as described in the cited literature, the peptide substrate for AspH was synthesized according to the cited literature while the peptide substrates for FIH and KDM4E were obtained from GL Biochem (Shanghai) Ltd (Shanghai, China). All peptide were prepared with C-terminal amides.

The target in the next assay is T2, KDM4E (Homo sapiens, UniProt B2RXH2).
T2 sequence (B2RXH2 1-506): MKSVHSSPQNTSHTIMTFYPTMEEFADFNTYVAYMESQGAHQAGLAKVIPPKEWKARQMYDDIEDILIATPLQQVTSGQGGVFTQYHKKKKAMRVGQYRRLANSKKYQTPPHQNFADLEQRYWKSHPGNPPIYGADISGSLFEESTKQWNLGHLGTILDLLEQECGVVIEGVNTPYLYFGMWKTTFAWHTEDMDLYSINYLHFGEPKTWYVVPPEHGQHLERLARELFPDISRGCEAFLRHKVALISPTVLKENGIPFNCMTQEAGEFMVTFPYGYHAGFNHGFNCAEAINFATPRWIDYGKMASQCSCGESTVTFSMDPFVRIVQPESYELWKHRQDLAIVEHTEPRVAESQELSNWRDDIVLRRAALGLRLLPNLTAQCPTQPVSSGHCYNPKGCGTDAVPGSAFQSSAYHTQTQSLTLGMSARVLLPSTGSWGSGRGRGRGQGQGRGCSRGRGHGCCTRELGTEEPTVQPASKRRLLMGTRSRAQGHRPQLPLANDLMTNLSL
The experiment in a line: SPE-MS inhibition assay, KDM4E (peptide demethylation). Particulars: 10.0 μM H3_1–15K9me3, n = 2, mean ± SD, inactive = no inhibition at 100 – 0.002 μM. The procedure:
as §1, §2

In assay [2] the target is T3, N-terminally His6-tagged FIH (Homo sapiens, UniProt Q9NWT6).
T3 construct: His6 (N); made in house
Nature of the assay: SPE-MS inhibition assay, FIH (peptide hydroxylation). As to conditions: 5.0 μM HIF-1α CAD (788–822), n = 2, mean ± SD, inactive = no inhibition at 100 – 0.002 μM. As to the method: as §1, §2

In assay [3] the target is recombinant human N-terminally His6-tagged RIOX2_26–465 (Homo sapiens, UniProt Q8IUF8). The experiment in a line: SPE-MS inhibition assay, RIOX2 (peptide hydroxylation). Particulars: n = 2, mean ± SD, inactive = no inhibition at 100 – 0.002 μM; for IC50: 0.15 μM His6-RIOX2_26–465, 5.0 μM RPL27A31–49 peptide; for IC50 RIOX2: […] His6-RIOX2_26–465, 5.0 μM RPL27A31–49 peptide.
Sequence of recombinant human N-terminally His6-tagged RIOX2_26–465 (Q8IUF8 26-465): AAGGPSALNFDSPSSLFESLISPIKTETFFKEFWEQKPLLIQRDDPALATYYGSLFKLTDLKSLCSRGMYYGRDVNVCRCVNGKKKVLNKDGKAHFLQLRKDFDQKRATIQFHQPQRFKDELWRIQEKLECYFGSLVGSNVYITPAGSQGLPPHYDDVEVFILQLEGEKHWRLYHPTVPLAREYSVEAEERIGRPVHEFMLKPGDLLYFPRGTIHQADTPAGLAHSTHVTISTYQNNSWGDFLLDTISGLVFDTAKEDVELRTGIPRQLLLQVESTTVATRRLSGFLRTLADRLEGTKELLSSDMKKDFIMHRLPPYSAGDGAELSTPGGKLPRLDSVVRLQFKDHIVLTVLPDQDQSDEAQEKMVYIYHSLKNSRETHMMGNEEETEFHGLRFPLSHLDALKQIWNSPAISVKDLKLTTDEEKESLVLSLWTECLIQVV

T3 sequence (Q9NWT6 whole entry): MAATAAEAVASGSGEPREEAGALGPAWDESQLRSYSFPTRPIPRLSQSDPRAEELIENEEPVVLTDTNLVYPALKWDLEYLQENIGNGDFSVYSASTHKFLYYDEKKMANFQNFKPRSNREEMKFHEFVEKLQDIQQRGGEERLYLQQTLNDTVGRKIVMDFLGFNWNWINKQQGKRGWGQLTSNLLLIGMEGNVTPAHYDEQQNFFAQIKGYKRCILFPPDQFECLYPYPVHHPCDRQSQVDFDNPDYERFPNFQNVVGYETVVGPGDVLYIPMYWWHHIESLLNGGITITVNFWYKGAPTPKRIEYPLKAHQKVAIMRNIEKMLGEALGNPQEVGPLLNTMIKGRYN

Turning to `O=C(O)c1ccnc(C(=O)O)c1` [2,4-PDCA, pyridine-2,4-dicarboxylate, reference compound], in assay [1], the IC50 is around 30 nM.

On to `O=C(O)c1ccnc(C(=O)O)c1F` [compound 7, 3-Fluoropyridine-2,4-dicarboxylic acid], for which the IC50 in assay [1] was 110 ± 10 nM; against KDM4E, 1300 ± 200 nM; in assay [2] it was above 50000 nM; in assay [3] it was above 50000 nM.

As to `O=C(O)c1cc(C(=O)O)c(F)cn1` [compound 8, 5-Fluoropyridine-2,4-dicarboxylic acid], the IC50 in assay [1] was 50 ± 10 nM; at KDM4E, 1600 ± 300 nM; in assay [2], above 50000 nM; in assay [3] it was above 50000 nM.

As to `O=C(O)c1ccnc(C(=O)O)c1C(F)(F)F` [compound 13, 3-Trifluoromethylpyridine-2,4-dicarboxylic acid], the IC50 in assay [1] was above 50000 nM. In addition, at KDM4E, the “IC50 KDM4E” value is “^d)inactive”. For the same compound, the “IC50 FIH” value in assay [2] was “^d)inactive”. Besides, the “IC50 RIOX2” value in assay [3] was “^d)inactive”.

Compound `O=C(O)c1cc(C(=O)O)c(C(F)(F)F)cn1` [compound 14, 5-Trifluoromethylpyridine-2,4-dicarboxylic acid] registered an IC50 in assay [1] of 4200 ± 1000 nM. The “IC50 KDM4E” value at KDM4E was “^d)inactive”. Besides, in assay [2], the “IC50 FIH” value was “^d)inactive”. Also, the “IC50 RIOX2” value in assay [3] was “^d)inactive”.
